# Laboratory results: ChEMBL document CHEMBL5726706, “C-linked heterocycloaklyl substituted pyrimidines and their uses” (2018)
# Biological target: T1, Mitogen-activated protein kinase kinase kinase 12 (Homo sapiens, UniProt Q12852)
# T1 sequence (Q12852 whole entry): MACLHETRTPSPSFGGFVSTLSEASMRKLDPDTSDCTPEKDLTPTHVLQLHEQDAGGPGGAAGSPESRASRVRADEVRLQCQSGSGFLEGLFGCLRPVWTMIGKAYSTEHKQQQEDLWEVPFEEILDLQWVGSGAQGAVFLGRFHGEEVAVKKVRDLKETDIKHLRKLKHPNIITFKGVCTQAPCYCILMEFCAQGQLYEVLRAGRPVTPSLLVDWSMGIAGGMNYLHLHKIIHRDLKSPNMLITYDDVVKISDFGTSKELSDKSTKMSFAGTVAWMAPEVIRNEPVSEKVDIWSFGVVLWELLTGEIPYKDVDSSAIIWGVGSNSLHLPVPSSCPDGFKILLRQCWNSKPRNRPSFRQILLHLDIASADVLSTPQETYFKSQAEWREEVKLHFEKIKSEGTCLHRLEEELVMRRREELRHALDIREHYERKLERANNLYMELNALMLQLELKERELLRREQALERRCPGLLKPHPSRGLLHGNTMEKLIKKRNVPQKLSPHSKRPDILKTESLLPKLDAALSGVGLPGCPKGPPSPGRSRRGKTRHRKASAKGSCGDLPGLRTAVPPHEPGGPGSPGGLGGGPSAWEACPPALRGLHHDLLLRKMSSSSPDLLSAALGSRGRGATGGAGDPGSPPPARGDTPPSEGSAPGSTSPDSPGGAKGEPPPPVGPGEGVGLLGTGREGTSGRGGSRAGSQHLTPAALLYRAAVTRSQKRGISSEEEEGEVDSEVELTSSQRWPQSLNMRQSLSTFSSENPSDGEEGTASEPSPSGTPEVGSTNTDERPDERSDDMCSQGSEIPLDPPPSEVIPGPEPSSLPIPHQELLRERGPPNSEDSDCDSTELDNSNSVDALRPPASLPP
# Assay: TR-FRET assay: DLK kinase reactions (20 μL) containing 5 nM N-terminally GST-tagged DLK (catalytic domain amino acid 1-520) (Carna Bioscience), 40 nM N-terminally HIS-tagged MKK4 K131M substrate, and 30 μM ATP in kinase reaction buffer (50 mM HEPES, pH 7.5, 0.01% Triton X-100, 0.01% Bovine γ-Globulins, 2 mM DTT, 10 mM MgCl2 and 1 mM EGTA), and testing compound 1:3 serial diluted starting at 20 uM were incubated at ambient temperature for 60 minutes in 384 well OptiPlate (Perkin Elmer). To quench kinase reactions and detect phosphorylated MKK4, 15 μL of TR-FRET antibody mixture containing 2 nM anti-phosphorylated MKK4 labeled with Europium cryptate (Cisbio) and 23 nM anti-HIS labeled with D2 (Cisbio) in detection buffer (25 mM Tris pH 7.5, 100 mM NaCl, 100 mM EDTA, 0.01% Tween-20, and 200 mM KF) was added to the reaction mixture. The detection mixture was incubated for 3 hours at ambient temperature and the TR-FRET was detected with an EnVision multilabel plate reader (Perkin-Elmer) using the LANCE/DELFIA Dual Enh label from Perkin-Elmer (excitation filter: UV2 (TRF) 320 and emission filters: APC 665 and Europium 615).
compound,measurement,value
Cc1ccnc(Nc2cc(C3CCCN(C(=O)Cc4ccccc4)C3)nc(C)n2)c1 (configuration not stated),Ki,639 nM
COC[C@H]1CCCN1c1nc(Nc2cc(C(F)(F)F)ccn2)cc(C2CCN(C(C)=O)CC2)n1,Ki,54.8 nM
